{"source": "patent US20240350542A1", "about": "“ANTICANCER T CELL THERAPY PRODUCT-ASSISTING COMPOSITION COMPRISING DEPLETING ANTI-CD4 MONOCLONAL ANTIBODY AND USE THEREOF” (NATIONAL CANCER CENTER, priority 2018, published 2024)", "key": {"[1]": {"system": "B16-F10 melanoma cancer cells", "protocol": "(§1) Specifically, 2×10^5 B16-F10 melanoma cancer cells were subcutaneously injected into the dorsal area of a C57BL/6 mouse to induce the formation of cancer tissue. At the same time, aPmel-1 was prepared in the same manner as in Example 1. aPmel-1 and IL-2 were administered in the same manner as in Example 1, and transient immunodeficiency was induced by intraperitoneally injecting 150, 200 and 300 mg/kg of cyclophosphamide (CTX) two days before the aPmel-1 administration. In addition, to confirm a period of maintaining transient immunodeficiency according to the dose of CTX, 150, 200 and 300 mg/kg of CTX was intraperitoneally injected into C57BL/6 mice once, and an inguinal lymph node and the spleen of the mice were collected, followed by single cell suspension and then counting a cell number."}, "[2]": {"system": "inguinal lymph node and spleen cell number", "protocol": "as §1"}}, "note": "Read-outs that look alike come from different tables or passages of the source."}
{"smiles": "O=P1(N(CCCl)CCCl)NCCCO1", "note": "(stereo not drawn) [CTX, cyclophosphamide]", "values": [{"measurement": "toxicity to the mouse", "setting": "[1]; 300 mg/kg or more of CTX", "value": "can be toxic to the mouse, leading to the death of the mouse"}, {"measurement": "survival of mouse", "setting": "[1]; C57BL/6, 150 mg/kg CTX only", "value": "up to 35 days"}, {"measurement": "growth of cancer tissue", "setting": "[1]; C57BL/6, 150 mg/kg CTX only, vs NT", "value": "cancer tissue grew more slowly"}, {"measurement": "growth of cancer tissue", "setting": "[1]; C57BL/6, 200 mg/kg CTX only", "value": "slower growth of cancer tissue than the 150 mg/kg CTX-administered mouse"}, {"measurement": "survival of mouse", "setting": "[1]; C57BL/6, 200 mg/kg CTX only", "value": "up to 45 days"}, {"measurement": "growth of cancer tissue", "setting": "[1]; C57BL/6, 300 mg/kg CTX only", "value": "slower growth of cancer tissue than when 200 mg/kg CTX-administered mouse"}, {"measurement": "survival of mouse", "setting": "[1]; C57BL/6, 300 mg/kg CTX only", "value": "up to 60 days"}, {"measurement": "transient immunodeficiency effect", "setting": "[2]; C57BL/6, 150 mg/kg CTX", "value": "insignificant"}, {"measurement": "period the immunodeficiency effect was maintained", "setting": "[2]; C57BL/6, 200 mg/kg CTX intraperitoneally once", "value": "approximately 2 weeks"}]}
